From patent publication US7947280B2 (priority 2003, dated 2011)
Several values for one entry are separate records, joined by “and”; a condition that tells them apart may be missing. Equal entries are not always repeated.

Tests used:
ApoE-KO mice = assay: Atherosclerotic lesion analysis in ApoE-KO mice; assay type: in vivo, mouse; conditions: for reduction of total lesion burden: co-infusion of Apelin 2 mg/kg/day with AngII 1.4 mg/kg/day
Method: Animals. Mice were maintained in temperature-controlled (20° C. to 22° C.) environment with a 12-hour light-dark cycle. […] All mice were C57BL/6J ApoE-KO male mice (Jackson Laboratories, Bar Harbor, […].) between the ages of 8-12 weeks. […] Animal procedures were carried out in accordance with the Institutional Review Board Guidelines at Stanford University.
Tissue preparation, histology and lesion quantification. Mice were euthanized 28 days following implantation of osmotic mini-pumps. The thoracic cage was removed and the animal perfused with phosphate buffered saline solution (PBS) for 2 minutes. The entire aorta and vein graft were exposed and the periadventitial tissue and scar tissue dissected and removed. Subsequently mice were perfusion fixed in situ with 4% phosphate-buffered paraformaldehyde. In some animals aorta and lung were removed fresh for biochemical assays.
Atherosclerotic Lesion Analysis Atherosclerosis lesion area was determined as described previously. Briefly, the arterial tree was perfused with PBS (pH 7.3) and then perfusion fixed with phosphate-buffered paraformaldehyde (3%, pH 7.3). The heart and full length of the aorta-to-iliac bifurcation was exposed and dissected carefully from any surrounding tissues. Aortas were then opened along the ventral midline and dissected free of the animal and pinned out flat, intimal side up, onto black wax. Aortic images were captured with a digital camera (DMC1) mounted on a Leica MZ6 stereomicroscope and analyzed using Fovea Pro (Reindeer Graphics, Asheville, N.C.). Percent lesion area was calculated as total lesion area divided by total surface area.

[1] = tested on: superoxide production in aortic sections; assay: Dihydroethidium oxidative fluorescence microtopography; assay type: in vivo, mouse
Method: Oxidative fluorescent microtopography. Superoxide was detected in the layers of the vessel wall using fluorescent probe dihydroethidium as described previously. Fresh segments of upper descending thoracic aorta were frozen in OCT compound. […] Molecular Probes). Images were obtained on a confocal microscope (Bio-Rad MRC-1024 laser; filter settings: excitation filter 488 nm; emission filter 550 nm). 2-hydroxyethidium fluorescence was measured from high power (60× mag) images. Endothelium by quantifying fluorescence (intensity×area) on the luminal side of the internal elastic lamina, media between the internal and external elastic lamina, and adventitia outside the external elastic lamina. Quantification was performed using Image Pro Plus software (Media Cybernetics, Silver Springs, Md.). Medial Analysis was performed blind to the samples identity.

rats = conditions: intravenous bolus injection in rats; Tatemoto et al., Lee et al.; cited from earlier work
[2] = tested on: superoxide production in aortic tissue of apoE knockout mice; assay: Lucigenin-enhanced chemiluminescence of aortic superoxide; assay type: in vivo, mouse; conditions: addition of apelin to AngII
Method: Lucigenin-enhanced chemiluminescence. Total aortic superoxide was measured by lucigenin-enhanced chemiluminescence as described previously. Aortas were harvested flushed with Krebs-HEPES buffer, opened longitudinally and divided into halves. Vessels were gassed with 95% oxygen/5% carbon dioxide in warmed Krebs-HEPES buffer for 30 minutes before measurements of chemiluminescence in a luminometer (manufacturer, location) using 20 μmol/L lucigenin. One half of each vessel was incubated in L-NAME (1 mmol/L). After measuring baseline readings for 4 minutes, samples were equilibrated and dark adapted for 5 mins, and chemiluminescence was recorded for 10 minutes. Recordings were performed blinded to the samples identity. Results were expressed as counts per second per milligram of tissue dry weight.

C57B/16 mice = assay: Magnetic resonance imaging after intraperitoneal apelin-12 injection; assay type: in vivo, mouse; conditions: post apelin-12 300 μg/kg intraperitoneal, one hour prior to scanning; n=9
Method: Magnetic resonance imaging. […] Platinum needle ECG leads were inserted subcutaneously. Respiration was monitored by means of a pneumatic pillow sensor positioned against the abdomen. Mouse body temperature was maintained during scanning at 37° C. by a flow of heated air thermostatically controlled by a rectal temperature probe. Magnetic resonance images were acquired on a 4.7T Oxford magnet controlled by a Varian Inova console (Varian, Palo Alto, Calif.) using a transmit-receive, quadrature, volume coil with an inner diameter of 3.5 cm. Image acquisition was gated to respiration and to the ECG R wave (SA Instruments, Stony Brook, N.Y.). Coronal and sagittal scout images led to the acquisition of multiple contiguous 1 mm thick, short axis slices orthogonal to the interventricular septum. […] Planimetry measurements of end diastolic and end systolic dimension were derived offline from short axis views of the left ventricle at the level of the papillary muscles using ImageJ software (National Institutes of Health, Bethesda, Md.). Ejection fraction was calculated as [[…]. Data Analysis. […] Exact p values are reported for all comparisons.

C57B1/6 mice = tested on: C57B1/6 mice
Method: Pressure-volume hemodynamics. Pressure-volume hemodynamics were assessed using the Aria System (Millar Instruments, Houston, Tex.). Male C57B1/6 mice aged 8-12 weeks (n=10) were anesthetized with 1-2% isoflurane in oxygen. The internal jugular vein was cannulated with PE tubing and a 10% albumin solution infused at 5 μl/min following a bolus of 150 μl over 5 minutes. After tracheotomy, a 19G cannula was inserted into the trachea and the animal was ventilated at a tidal volume of 200 μl at 100 breaths per minute (Harvard Apparatus, Holliston, Mass.). Mice were warmed throughout the procedure and constantly monitored for depth of anesthesia. Following an incision just dorsal to the xyphoid cartilage, the diaphragm was visualized from below, and after diaphragmatic incision, the left ventricular apex was visualized. The pressure-volume catheter was then inserted along the long axis of the left ventricle, from where it was adjusted to obtain rectangular shaped pressure-volume loops. Appropriate position was verified post mortem (FIG. 1, Panel D). […] Signals from the catheter were digitized using the Powerlab system (ADInstruments, Colorado Springs, Colo.) and stored for offline analysis using the PVAN software (Pressure-volume ANalysis, Millar Instruments, Houston, Tex.).
Data Analysis. Data were analyzed using Student's t statistic (paired) or the repeated measures analysis of variance using the post hoc comparison of Fisher (NCSS 2002). Exact p values are reported for all comparisons.

isolated rat heart = conditions: Szokodi et al; cited from earlier work
[3] = post 100 nM Apelin-12 infused at 5 μl/min for 20 minutes

With apelin the “reduction in aortic root atherosclerotic burden vs saline treated controls (trend)” value (ApoE-KO mice; apelin 2 mg/kg/day, 4 weeks) was 25%, the “reduction of total lesion burden” value (ApoE-KO mice; 4 weeks) was “mitigated” and the “reduction of total lesion burden” value (ApoE-KO mice; 4 weeks, listed as Apelin) was 75%. For the same substance, the “progression of atherosclerosis in aortic root (FIG. 17)” value (ApoE-KO mice; osmotic minipump during high fat diet exposure) was “do not alter”, the “aortic superoxide production vs AngII alone” value ([1]; apelin added to AngII treated mice) was “significantly reduced” and the “Total aortic fluorescence, lower than saline treated controls” value ([1]; apelin treated mice) was 3 fold. The mean arterial pressure (rats) was “decrease”, the “AngII stimulated increase in total chemiluminescence” value [2] was “abolished” and the Ejection fraction (C57B/16 mice) was 67.7±1.6%. The “heart rate (inverse of R-R interval of electrocardiogram)” value (C57B/16 mice) was 559±19 beats per minute, the “left ventricular end diastolic area” value (C57B/16 mice) was 0.104±0.005 cm2 and the “Time constants of relaxation” value (C57B1/6 mice; after apelin infusion) was “not different”. For the same substance, the “slope and intercept of linear fit of end diastolic pressure-volume relationship” value (C57B1/6 mice; after apelin infusion) was “not different”, the Arterial elastance (C57B1/6 mice; following apelin infusion) was “did not change significantly” and the dP/dtmax (C57B1/6 mice; following apelin infusion) was “did not change”. For the same substance, the end systolic pressure (C57B1/6 mice; following apelin infusion) was “reduced”, the EDV mean (C57B1/6 mice; [3]) was 26.2 and the “Emax (time varying elastance)” value (C57B1/6 mice; [3]) was 12.7±3.1 and 12.7. For the same substance, the HR mean (C57B1/6 mice; [3]) was 353, the PRSW intercept mean (C57B1/6 mice; [3]) was 11.3 and the “LV end diastolic volume” value (C57B1/6 mice; post apelin infusion) was 26.2±5.9 RVU. The “constant k1 of monoexponential fit LVEDP=k1*exp(k2*LVEDV)” value (C57B1/6 mice; post apelin infusion) was 0.111±0.002, the “exponential k2 of monoexponential fit LVEDP=k1*exp(k2*LVEDV)” value (C57B1/6 mice; post apelin infusion) was 0.69±0.41 and the heart rate (C57B1/6 mice; post apelin infusion, invasive study) was 353±33 bpm. For the same substance, the “EC50, contractility of the isolated rat heart” value (isolated rat heart) was “low picomolar range”.
